Measurements taken from publication PMC8213057, “Targeting ALK2: An Open Science Approach to Developing Therapeutics for the Treatment of Diffuse Intrinsic Pontine Glioma” (Journal of Medicinal Chemistry, 2020).

How the values were obtained:
SGK1 = target: T1, SGK1 (Homo sapiens, UniProt O00141); details: 1 μM; Run 1, Run 2
T1 sequence (O00141 1-431): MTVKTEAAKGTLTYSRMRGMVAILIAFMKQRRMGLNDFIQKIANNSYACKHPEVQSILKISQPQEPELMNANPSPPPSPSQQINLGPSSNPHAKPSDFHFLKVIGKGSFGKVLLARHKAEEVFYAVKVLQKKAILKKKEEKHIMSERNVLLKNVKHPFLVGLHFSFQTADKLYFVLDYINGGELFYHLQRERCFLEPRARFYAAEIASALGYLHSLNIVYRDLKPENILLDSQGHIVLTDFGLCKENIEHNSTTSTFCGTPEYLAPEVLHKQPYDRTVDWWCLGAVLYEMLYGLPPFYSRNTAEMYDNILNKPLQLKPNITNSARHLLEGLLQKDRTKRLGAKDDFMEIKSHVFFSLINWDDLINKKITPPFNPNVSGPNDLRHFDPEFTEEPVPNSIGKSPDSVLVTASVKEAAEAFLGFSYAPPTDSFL

PKCzeta = target: T2, PKCzeta (Homo sapiens, UniProt Q05513); details: 1 μM; Run 1, Run 2
T2 sequence (Q05513 1-592): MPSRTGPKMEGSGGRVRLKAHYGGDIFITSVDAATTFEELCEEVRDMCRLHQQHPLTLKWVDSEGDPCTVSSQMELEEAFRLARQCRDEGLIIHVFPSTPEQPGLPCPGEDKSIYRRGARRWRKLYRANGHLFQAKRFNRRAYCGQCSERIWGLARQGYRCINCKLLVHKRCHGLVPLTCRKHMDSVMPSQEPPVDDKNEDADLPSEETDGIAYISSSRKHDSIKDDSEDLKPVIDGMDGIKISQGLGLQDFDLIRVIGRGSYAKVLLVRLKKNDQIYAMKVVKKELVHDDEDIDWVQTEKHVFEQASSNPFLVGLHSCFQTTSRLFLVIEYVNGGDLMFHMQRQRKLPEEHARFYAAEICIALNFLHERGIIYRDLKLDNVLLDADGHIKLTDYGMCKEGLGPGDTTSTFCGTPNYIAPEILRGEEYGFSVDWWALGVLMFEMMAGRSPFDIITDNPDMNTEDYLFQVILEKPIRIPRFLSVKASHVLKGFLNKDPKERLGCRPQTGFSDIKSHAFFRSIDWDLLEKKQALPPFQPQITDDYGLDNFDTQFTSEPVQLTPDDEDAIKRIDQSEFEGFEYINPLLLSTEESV

PAK4 = PAK4 (Homo sapiens, UniProt O96013); experiment: biochemical; details: read-out: % enzyme activity, 1 μM; Run 1, Run 2
Sequence of PAK4 (O96013 whole entry): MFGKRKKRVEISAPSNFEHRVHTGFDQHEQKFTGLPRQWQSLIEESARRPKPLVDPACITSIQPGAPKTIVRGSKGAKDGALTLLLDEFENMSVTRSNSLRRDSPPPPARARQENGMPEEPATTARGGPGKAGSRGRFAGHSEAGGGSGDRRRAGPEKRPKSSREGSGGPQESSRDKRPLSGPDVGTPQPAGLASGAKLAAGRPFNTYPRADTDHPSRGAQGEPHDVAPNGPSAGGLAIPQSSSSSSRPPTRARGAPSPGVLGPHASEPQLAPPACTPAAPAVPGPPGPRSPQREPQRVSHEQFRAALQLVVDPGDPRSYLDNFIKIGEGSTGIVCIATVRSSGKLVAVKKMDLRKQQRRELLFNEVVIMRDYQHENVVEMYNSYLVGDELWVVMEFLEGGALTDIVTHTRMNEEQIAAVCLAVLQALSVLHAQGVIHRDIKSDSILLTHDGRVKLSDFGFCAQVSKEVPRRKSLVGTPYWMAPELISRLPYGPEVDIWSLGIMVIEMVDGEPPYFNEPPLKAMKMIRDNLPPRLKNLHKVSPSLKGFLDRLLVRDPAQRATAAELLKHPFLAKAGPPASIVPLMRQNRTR

GRK2 = target: T3, GRK2 (Homo sapiens, UniProt P25098); experiment: biochemical; details: read-out: % enzyme activity, 1 μM; Run 1, Run 2
T3 sequence (P25098 1-689): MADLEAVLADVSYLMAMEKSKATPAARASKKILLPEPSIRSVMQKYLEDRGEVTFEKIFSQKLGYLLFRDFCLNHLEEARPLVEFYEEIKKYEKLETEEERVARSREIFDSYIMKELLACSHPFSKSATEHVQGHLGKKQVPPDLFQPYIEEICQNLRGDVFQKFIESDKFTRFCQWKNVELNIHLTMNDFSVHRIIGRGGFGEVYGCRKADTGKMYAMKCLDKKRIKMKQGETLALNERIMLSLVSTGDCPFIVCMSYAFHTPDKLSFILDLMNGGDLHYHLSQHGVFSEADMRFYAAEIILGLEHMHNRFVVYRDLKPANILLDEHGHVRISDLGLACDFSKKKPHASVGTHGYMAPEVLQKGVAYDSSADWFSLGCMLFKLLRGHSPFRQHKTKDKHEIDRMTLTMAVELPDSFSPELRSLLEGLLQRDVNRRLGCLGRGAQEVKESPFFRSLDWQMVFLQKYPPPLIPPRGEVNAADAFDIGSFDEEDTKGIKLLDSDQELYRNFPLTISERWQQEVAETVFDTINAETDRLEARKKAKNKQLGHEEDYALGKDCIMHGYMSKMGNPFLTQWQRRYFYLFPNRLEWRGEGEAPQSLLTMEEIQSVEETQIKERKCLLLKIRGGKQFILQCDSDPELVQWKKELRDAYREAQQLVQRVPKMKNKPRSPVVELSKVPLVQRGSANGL

JAK2 = JAK2 (Homo sapiens, UniProt O60674); details: 1 μM; Run 1, Run 2
ABL2/ARG = ABL2/ARG (Homo sapiens, UniProt P42684); details: 1 μM; Run 1, Run 2
CDK9/cyclin K = target: T4, CDK9/cyclin K (Homo sapiens, UniProt P50750); experiment: 375-member kinase panel; format: biochemical; details: Run 1, Run 2; for % enzyme activity: 1 μM; for remaining activity at 1 µM: read-out: % enzyme activity, 1 μM
T4 construct: purchased Reaction Biology Corporation
T4 sequence (P50750 whole entry): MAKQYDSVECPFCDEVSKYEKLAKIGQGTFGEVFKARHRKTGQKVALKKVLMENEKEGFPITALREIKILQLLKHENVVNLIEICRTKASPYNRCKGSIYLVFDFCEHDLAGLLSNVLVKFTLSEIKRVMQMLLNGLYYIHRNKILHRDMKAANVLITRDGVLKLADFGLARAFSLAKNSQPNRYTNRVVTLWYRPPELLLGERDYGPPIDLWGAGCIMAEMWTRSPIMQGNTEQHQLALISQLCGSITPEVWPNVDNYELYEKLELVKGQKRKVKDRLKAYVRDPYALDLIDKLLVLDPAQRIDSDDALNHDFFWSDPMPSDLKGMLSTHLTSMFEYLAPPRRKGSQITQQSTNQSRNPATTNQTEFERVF
T4 sequence (O75909 whole entry partner): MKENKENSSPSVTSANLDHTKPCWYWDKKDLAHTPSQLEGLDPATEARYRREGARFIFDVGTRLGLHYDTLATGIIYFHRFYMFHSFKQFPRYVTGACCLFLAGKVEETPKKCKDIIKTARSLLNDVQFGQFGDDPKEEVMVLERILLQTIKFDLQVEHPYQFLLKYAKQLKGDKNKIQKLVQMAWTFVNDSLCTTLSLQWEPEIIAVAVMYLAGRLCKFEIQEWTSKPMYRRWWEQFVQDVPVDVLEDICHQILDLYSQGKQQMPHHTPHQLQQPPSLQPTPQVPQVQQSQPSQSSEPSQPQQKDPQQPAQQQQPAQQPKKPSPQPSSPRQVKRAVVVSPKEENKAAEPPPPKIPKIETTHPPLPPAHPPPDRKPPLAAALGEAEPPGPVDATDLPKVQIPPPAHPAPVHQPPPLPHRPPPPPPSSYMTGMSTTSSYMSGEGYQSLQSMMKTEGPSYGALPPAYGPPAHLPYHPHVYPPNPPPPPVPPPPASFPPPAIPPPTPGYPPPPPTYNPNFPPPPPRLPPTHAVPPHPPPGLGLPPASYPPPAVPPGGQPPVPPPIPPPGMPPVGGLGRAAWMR

MLCK/MYLK = MLCK/MYLK (Homo sapiens, UniProt Q15746); details: 1 μM; Run 1, Run 2
LIMK2 = LIMK2 (Homo sapiens, UniProt P53671); details: 1 μM; Run 1, Run 2
Sequence of LIMK2 (P53671 whole entry): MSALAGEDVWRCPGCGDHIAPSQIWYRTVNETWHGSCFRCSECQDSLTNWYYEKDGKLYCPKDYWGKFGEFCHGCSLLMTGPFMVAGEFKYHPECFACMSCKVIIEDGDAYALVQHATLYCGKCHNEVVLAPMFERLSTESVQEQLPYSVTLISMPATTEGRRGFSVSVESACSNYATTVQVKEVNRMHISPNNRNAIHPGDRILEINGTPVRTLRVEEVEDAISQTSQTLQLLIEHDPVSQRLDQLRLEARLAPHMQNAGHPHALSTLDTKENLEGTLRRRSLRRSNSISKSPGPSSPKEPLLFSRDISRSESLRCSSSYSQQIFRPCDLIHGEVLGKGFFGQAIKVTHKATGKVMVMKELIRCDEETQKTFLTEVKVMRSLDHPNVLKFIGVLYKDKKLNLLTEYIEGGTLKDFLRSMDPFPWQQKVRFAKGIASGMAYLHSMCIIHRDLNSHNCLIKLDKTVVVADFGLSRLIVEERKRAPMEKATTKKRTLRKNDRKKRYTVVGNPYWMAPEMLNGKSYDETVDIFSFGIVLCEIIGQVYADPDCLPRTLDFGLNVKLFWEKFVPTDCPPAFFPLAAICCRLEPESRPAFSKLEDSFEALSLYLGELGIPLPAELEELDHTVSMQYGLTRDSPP

GRK5 = GRK5 (Homo sapiens, UniProt P34947); experiment: biochemical; details: read-out: % enzyme activity, 1 μM; Run 1, Run 2
MELK = MELK (Homo sapiens, UniProt Q14680); details: 1 μM; Run 1, Run 2
STK38L/NDR2 = STK38L/NDR2 (Homo sapiens, UniProt Q9Y2H1); details: 1 μM; Run 1, Run 2
AKT1 = AKT1 (Homo sapiens, UniProt P31749); experiment: biochemical; details: read-out: % enzyme activity, 1 μM; Run 1, Run 2
MEK2 = MEK2 (Homo sapiens, UniProt P36507); experiment: biochemical; details: read-out: % enzyme activity, 1 μM; Run 1, Run 2
FRK/PTK5 = FRK/PTK5 (Homo sapiens, UniProt P42685); details: 1 μM; Run 1, Run 2
Sequence of FRK/PTK5 (P42685 whole entry): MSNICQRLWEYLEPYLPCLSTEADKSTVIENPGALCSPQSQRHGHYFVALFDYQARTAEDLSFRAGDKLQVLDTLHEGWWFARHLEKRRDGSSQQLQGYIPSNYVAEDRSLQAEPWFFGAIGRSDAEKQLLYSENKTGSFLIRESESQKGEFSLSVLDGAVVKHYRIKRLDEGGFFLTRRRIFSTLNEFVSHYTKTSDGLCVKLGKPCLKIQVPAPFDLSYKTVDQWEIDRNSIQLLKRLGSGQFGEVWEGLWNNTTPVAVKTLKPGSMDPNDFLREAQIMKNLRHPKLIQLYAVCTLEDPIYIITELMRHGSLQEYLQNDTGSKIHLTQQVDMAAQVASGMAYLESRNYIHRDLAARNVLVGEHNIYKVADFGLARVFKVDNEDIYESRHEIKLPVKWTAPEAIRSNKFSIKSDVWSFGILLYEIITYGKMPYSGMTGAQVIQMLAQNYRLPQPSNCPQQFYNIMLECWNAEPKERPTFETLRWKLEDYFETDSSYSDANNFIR

TYK2 = TYK2 (Homo sapiens, UniProt P29597); experiment: biochemical; details: read-out: % enzyme activity, 1 μM; Run 1, Run 2
Sequence of TYK2 (P29597 whole entry, species assumed): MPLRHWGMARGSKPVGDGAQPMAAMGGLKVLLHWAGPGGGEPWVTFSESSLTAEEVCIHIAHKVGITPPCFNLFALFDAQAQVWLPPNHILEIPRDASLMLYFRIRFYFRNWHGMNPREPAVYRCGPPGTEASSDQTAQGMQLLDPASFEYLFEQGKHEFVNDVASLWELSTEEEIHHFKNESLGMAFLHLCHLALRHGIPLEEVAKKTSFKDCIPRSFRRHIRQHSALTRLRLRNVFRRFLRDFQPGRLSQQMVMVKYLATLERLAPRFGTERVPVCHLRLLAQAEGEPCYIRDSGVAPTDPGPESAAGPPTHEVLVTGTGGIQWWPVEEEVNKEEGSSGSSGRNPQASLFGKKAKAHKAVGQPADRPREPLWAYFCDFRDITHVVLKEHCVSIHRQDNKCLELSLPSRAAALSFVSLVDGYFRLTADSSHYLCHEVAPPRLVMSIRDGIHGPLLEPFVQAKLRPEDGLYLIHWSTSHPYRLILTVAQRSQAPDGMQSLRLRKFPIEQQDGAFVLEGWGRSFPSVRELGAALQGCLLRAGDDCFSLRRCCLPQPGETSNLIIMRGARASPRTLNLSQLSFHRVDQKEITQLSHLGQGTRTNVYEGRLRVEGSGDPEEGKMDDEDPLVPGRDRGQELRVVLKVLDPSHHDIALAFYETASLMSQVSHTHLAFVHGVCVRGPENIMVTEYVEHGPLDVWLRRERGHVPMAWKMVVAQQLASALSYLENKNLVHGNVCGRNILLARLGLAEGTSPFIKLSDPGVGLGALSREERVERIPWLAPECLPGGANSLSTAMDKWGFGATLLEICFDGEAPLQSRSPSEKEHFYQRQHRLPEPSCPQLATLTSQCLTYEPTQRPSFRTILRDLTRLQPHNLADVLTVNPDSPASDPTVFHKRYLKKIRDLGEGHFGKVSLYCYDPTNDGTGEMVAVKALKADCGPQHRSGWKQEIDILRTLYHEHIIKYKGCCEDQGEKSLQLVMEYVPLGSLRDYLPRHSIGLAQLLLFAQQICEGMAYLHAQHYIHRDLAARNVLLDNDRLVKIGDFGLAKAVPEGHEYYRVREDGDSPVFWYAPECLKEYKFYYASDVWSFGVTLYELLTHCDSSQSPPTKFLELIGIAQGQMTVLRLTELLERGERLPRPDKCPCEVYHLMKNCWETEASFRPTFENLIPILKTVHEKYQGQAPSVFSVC

c-Src = c-Src (Homo sapiens, UniProt P12931); experiment: biochemical; details: read-out: % enzyme activity, 1 μM; Run 1, Run 2
CLK1 = CLK1 (Homo sapiens, UniProt P49759); details: 1 μM; Run 1, Run 2
Sequence of CLK1 (P49759 whole entry): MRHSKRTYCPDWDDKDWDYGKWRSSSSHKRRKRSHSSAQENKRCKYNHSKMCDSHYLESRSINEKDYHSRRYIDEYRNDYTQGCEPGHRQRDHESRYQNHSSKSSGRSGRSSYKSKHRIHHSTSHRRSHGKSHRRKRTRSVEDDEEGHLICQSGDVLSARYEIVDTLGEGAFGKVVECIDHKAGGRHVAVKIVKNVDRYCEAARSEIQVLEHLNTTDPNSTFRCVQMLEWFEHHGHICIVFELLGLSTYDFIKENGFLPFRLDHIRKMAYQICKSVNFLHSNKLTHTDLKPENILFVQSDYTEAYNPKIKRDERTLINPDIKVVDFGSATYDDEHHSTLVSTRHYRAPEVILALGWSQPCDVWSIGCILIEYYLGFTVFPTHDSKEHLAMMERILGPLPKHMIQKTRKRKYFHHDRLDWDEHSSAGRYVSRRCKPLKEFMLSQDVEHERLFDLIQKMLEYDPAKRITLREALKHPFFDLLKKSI

ERK2/MAPK1 = ERK2/MAPK1 (Homo sapiens, UniProt P28482); details: 1 μM; Run 1, Run 2
PIM2 = PIM2 (Homo sapiens, UniProt Q9P1W9); details: 1 μM; Run 1, Run 2
Sequence of PIM2 (Q9P1W9 whole entry): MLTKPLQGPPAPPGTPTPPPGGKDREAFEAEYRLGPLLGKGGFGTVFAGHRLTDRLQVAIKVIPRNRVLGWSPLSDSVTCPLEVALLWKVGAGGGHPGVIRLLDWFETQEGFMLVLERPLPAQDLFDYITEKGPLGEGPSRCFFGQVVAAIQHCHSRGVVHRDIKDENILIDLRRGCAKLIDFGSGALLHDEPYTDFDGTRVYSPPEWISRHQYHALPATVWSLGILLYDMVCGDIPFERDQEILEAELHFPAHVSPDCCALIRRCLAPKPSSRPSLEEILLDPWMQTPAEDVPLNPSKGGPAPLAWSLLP

PIM1 = PIM1 (Homo sapiens, UniProt P11309); experiment: biochemical; details: read-out: % enzyme activity, 1 μM; Run 1, Run 2
Sequence of PIM1 (P11309 whole entry): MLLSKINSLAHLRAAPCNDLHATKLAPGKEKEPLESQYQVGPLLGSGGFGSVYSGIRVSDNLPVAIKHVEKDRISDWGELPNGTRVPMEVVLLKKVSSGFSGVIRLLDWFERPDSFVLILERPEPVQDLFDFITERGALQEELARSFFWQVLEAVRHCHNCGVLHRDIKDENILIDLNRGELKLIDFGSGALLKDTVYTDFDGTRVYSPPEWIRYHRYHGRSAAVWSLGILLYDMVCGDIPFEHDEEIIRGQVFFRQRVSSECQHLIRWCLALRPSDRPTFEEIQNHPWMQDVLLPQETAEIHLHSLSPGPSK

Row | SMILES | % enzyme activity (SGK1) [%] | % enzyme activity (PKCzeta) [%] | remaining activity at 1 µM (PAK4) [%] | remaining activity at 1 µM (GRK2) [%] | % enzyme activity (JAK2) [%] | % enzyme activity (ABL2/ARG) [%] | % enzyme activity (CDK9/cyclin K) [%] | remaining activity at 1 µM (CDK9/cyclin K) [%] | % enzyme activity (MLCK/MYLK) [%] | % enzyme activity (LIMK2) [%] | remaining activity at 1 µM (GRK5) [%] | % enzyme activity (MELK) [%] | % enzyme activity (STK38L/NDR2) [%] | remaining activity at 1 µM (AKT1) [%] | remaining activity at 1 µM (MEK2) [%] | % enzyme activity (FRK/PTK5) [%] | remaining activity at 1 µM (TYK2) [%] | remaining activity at 1 µM (c-Src) [%] | % enzyme activity (CLK1) [%] | % enzyme activity (ERK2/MAPK1) [%] | also measured
1 | COc1cc(-c2cncc(-c3ccc(N4CCN(C)CC4)cc3)c2C)cc(F)c1C(N)=O [Compound 26a, 2-Fluoro-6-methoxy-4-(4-methyl-5-(4-(4-methylpiperazin-1-yl)phenyl)pyridin-3-yl)benzamide] | 93.48 | 90.40 | 98.5 | 105 | 92.09 | 95.77 | 96.95 | 97.5 | 106.15 | 99.63 | 104 | 98.82 | 98.69 | 106 | 87.1 | 95.48 | 92.6 | 96.6 | 94.42 | 91.58 | % enzyme activity (PIM2): 95.51%; remaining activity at 1 µM (PIM1): 100%
2 | COc1cc(-c2cncc(-c3ccc(N4C[C@@H](C)N(C)[C@@H](C)C4)cc3)c2C)cc(F)c1C(N)=O [Compound 26c, 2-Fluoro-6-methoxy-4-(4-methyl-5-(4-((3R,5S)-3,4,5-trimethylpiperazin-1-yl)phenyl)pyridin-3-yl)benzamide] | 95.22 | 91.43 | 99.9 | 101 | 88.17 | 96.59 | 102.30 | 106 | 101.49 | 95.75 | 93.1 | 99.30 | 102.97 | 105 | 94 | 95.52 | 103 | 100 | 86.91 | 87.49 | % enzyme activity (PIM2): 98.82%; remaining activity at 1 µM (PIM1): 95.2%
